The source of these data is patent publication US4244967A, “Antiphlogistic pharmaceutical compositions containing a phenylethanolamine and methods of use” (priority 1978, dated 1981).

SMILES strings stand for the structures. Values joined by “and” are separate entries in the source; they are usually repeats but may differ in a detail not shown here. Equal entries are not always repeated.

As a reminder, the IC20 is the concentration at which the effect reaches the 20% level. The low end stands for greater potency, the high end for weaker potency.

The nature of data set [1]: long-lasting in vivo activity compared with other β-mimetics. Particulars: no data given.
Data set [2] is described as follows: enteral absorption. Particulars: no data given. Type of data set: in vivo.
Data set [3] deals with human polymorphnuclear leucocytes (PMN). In words: Inhibition of the release of lysosomal β-glucuronidase from human polymorphnuclear leucocytes (PMN) during phagocytosis of zymosan particles. Type of data set: cell-based. Particulars: in vitro; for IC20: Homo sapiens, Leucocyte, 20% inhibition of release (EC20, not EC50), zymosan-phagocytosis, Fieller confidence limits given. As to the method: The compounds were tested for their inhibitory effect on the release of lyosomal enzymes (β-glucuronidase was the lysomal marker-enzyme) from human polymorphnuclear leucocytes (PMN) during the phagocytosis of zymosan particles. According to WEISSMANN, the release of lyosomal enzymes in the course of the phagocytosis of immune complexes plays a significant role for the "self perpetuation" in rheumatoid arthritis. The test was performed according to the method of WEISSMANN et al. [J. Exp. Med. 134, 149s-165s (1971)]. The buffer system and the incubation times were changed, the number of the zymosan particles and the number of PMN was standardized. From the inhibiting effects produced by the test substance in comparison with the zymosan control, an EC20 with confidence limits according to FIELLER (Quart. J. Pharm. Pharmacol. 17, 117-123 (1944) was calculated by linear regression analysis according to LINDER [Stat. Methoden, 4th Ed., 148-162, published by Birkhauser, Basel, Switzerland (1964)] as the end concentration of the test substance that produced a 20% inhibition of the release of lysosomal β-glucuronidasefrom human polymorphnuclear leucocytes in vitro during the zymosan-phagocytosis.
Effect on the release of lysosomal β-glucuronidase from human polymorph-nucleic leucocytes under zymosan-phagocytosis.

Regarding `CCOC(=O)Nc1c(F)cc(C(O)CNC(C)(C)C)cc1C#N.Cl` (centres unmarked) [Compound A, 1-(4-ethoxycarbonylamino-3-cyano-5-fluoro-phenyl)-2-tert. butylamino-ethanol hydrochloride], the “in vivo activity, duration” value in data set [1] was “long-lasting”. Further, in data set [2], the enteral absorption result is on record as “very good”. In addition, in data set [3], the IC20 was 130 nM and 0.0468 µg/mL. Besides, the “stronger inhibitor of the release of lysosomal enzymes than terbutaline sulfate” value in data set [3] (relative to terbutaline sulfate (B)) was “about 18 times stronger”.

As for `CC(C)(C)NCC(O)c1cc(O)cc(O)c1` (centres unmarked) [B, reference compound], the IC20 in data set [3] is 2.4 µM and 0.658 µg/mL.
